In ChEMBL document CHEMBL3045943, “Novel N-aryl(alkaryl)-2-[(3-R-2-oxo-2H-[1,2,4]triazino[2,3-c]quinazoline-6-yl)thio]acetamides: synthesis, cytotoxicity, anticancer activity, COMPARE analysis and docking” (2013):

Columns and labels:
Format in all cases: functional
OVCAR-3 [1] = assay: Cytotoxicity against Homo sapiens (human) OVCAR3 cells assessed as cell growth at 10 uM after 48 hr by SRB assay relative to control; conditions: OVCAR-3, 48 h, read-out: Activity
HL-60(TB) = assay: Cytotoxicity against Homo sapiens (human) HL-60(TB) cells assessed as cell growth at 10 uM after 48 hr by SRB assay relative to control; conditions: HL-60, 48 h, read-out: Activity
786-0 = assay: Cytotoxicity against Homo sapiens (human) 786-0 cells assessed as cell growth at 10 uM after 48 hr by SRB assay relative to control; conditions: 786-0, 48 h, read-out: Activity
CAKI-1 = assay: Cytotoxicity against Homo sapiens (human) Caki1 cells assessed as cell growth at 10 uM after 48 hr by SRB assay relative to control; conditions: CAKI-1, 48 h, read-out: Activity
EKVX = assay: Cytotoxicity against Homo sapiens (human) EKVX cells assessed as cell growth at 10 uM after 48 hr by SRB assay relative to control; conditions: read-out: Activity
[2] = test system: Photobacterium leiognathi; assay: Growth inhibition of Photobacterium leiognathi Sh1 assessed as bio-luminescence at 0.25 mg/ml after 10 min by acute action test relative to control; set-up: scale not given: the % may be the effect or the level left
[3] = test system: Photobacterium leiognathi; assay: Growth inhibition of Photobacterium leiognathi Sh1 assessed as bio-luminescence at 0.25 mg/ml after 16 to 18 hr by chronic action test relative to control; set-up: scale not given: the % may be the effect or the level left
MOLT-4 = assay: Cytotoxicity against Homo sapiens (human) MOLT4 cells assessed as cell growth at 10 uM after 48 hr by SRB assay relative to control; conditions: MOLT-4, 48 h, read-out: Activity
HOP-62 = assay: Cytotoxicity against Homo sapiens (human) HOP62 cells after 48 hr by SRB assay; conditions: HOP-62, 48 h; for TGI: read-out: pTGI (converted)
HCT-116 = assay: Cytotoxicity against Homo sapiens (human) HCT116 cells assessed as cell growth at 10 uM after 48 hr by SRB assay relative to control; conditions: HCT-116, 48 h, read-out: Activity
[4] = test system: Photobacterium leiognathi; assay: Growth inhibition of Photobacterium leiognathi Sh1 assessed as bio-luminescence at 0.1 mg/ml after 16 to 18 hr by chronic action test relative to control; set-up: scale not given: the % may be the effect or the level left
A498 = assay: Cytotoxicity against Homo sapiens (human) A498 cells after 48 hr by SRB assay; conditions: A498, 48 h
RXF 393 = assay: Cytotoxicity against Homo sapiens (human) RXF393 cells after 48 hr by SRB assay; conditions: RXF 393, 48 h; for TGI: read-out: pTGI (converted)
NCI-H460 = assay: Cytotoxicity against Homo sapiens (human) NCI-H460 cells assessed as cell growth at 10 uM after 48 hr by SRB assay relative to control; conditions: NCI-H460, 48 h, read-out: Activity
K562 = assay: Cytotoxicity against Homo sapiens (human) K562 cells assessed as cell growth at 10 uM after 48 hr by SRB assay relative to control; conditions: K562, 48 h, read-out: Activity
SNB-75 = assay: Cytotoxicity against Homo sapiens (human) SNB75 cells after 48 hr by SRB assay; conditions: SNB-75, 48 h; for TGI: read-out: pTGI (converted)
[5] = test system: Photobacterium leiognathi; assay: Growth inhibition of Photobacterium leiognathi Sh1 assessed as bio-luminescence at 0.025 mg/ml after 16 to 18 hr by chronic action test relative to control; set-up: scale not given: the % may be the effect or the level left
SR = assay: Cytotoxicity against Homo sapiens (human) SR cells assessed as cell growth at 10 uM after 48 hr by SRB assay relative to control; conditions: read-out: Activity
SF-295 = assay: Cytotoxicity against Homo sapiens (human) SF295 cells assessed as cell growth at 10 uM after 48 hr by SRB assay relative to control; conditions: SF-295, 48 h, read-out: Activity
A549 = assay: Cytotoxicity against Homo sapiens (human) A549 cells assessed as cell growth at 10 uM after 48 hr by SRB assay relative to control; conditions: A549, 48 h, read-out: Activity
MDA-MB-435 = assay: Cytotoxicity against Homo sapiens (human) MDA-MB-435 cells assessed as cell growth at 10 uM after 48 hr by SRB assay relative to control; conditions: MDA-MB-435, 48 h, read-out: Activity
SF-268 = assay: Cytotoxicity against Homo sapiens (human) SF268 cells assessed as cell growth at 10 uM after 48 hr by SRB assay relative to control; conditions: SF-268, 48 h, read-out: Activity
DU-145 = assay: Cytotoxicity against Homo sapiens (human) DU145 cells assessed as cell growth at 10 uM after 48 hr by SRB assay relative to control; conditions: DU-145, 48 h, read-out: Activity
LOX IMVI = assay: Cytotoxicity against Homo sapiens (human) LOXIMVI cells assessed as cell growth at 10 uM after 48 hr by SRB assay relative to control; conditions: read-out: Activity
[6] = test system: Photobacterium leiognathi; assay: Growth inhibition of Photobacterium leiognathi Sh1 assessed as bio-luminescence at 0.1 mg/ml after 10 min by acute action test relative to control; set-up: scale not given: the % may be the effect or the level left
IGROV-1 = assay: Cytotoxicity against Homo sapiens (human) IGROV1 cells assessed as cell growth at 10 uM after 48 hr by SRB assay relative to control; conditions: IGROV-1, 48 h, read-out: Activity
Hs-578T = assay: Cytotoxicity against Homo sapiens (human) Hs 578T cells after 48 hr by SRB assay; conditions: for TGI: read-out: pTGI (converted)
SW-620 = assay: Cytotoxicity against Homo sapiens (human) SW620 cells assessed as cell growth at 10 uM after 48 hr by SRB assay relative to control; conditions: SW-620, 48 h, read-out: Activity
KM12 = assay: Cytotoxicity against Homo sapiens (human) KM12 cells assessed as cell growth at 10 uM after 48 hr by SRB assay relative to control; conditions: KM12, 48 h, read-out: Activity
[7] = test system: Photobacterium leiognathi; assay: Growth inhibition of Photobacterium leiognathi Sh1 assessed as bio-luminescence at 0.025 mg/ml after 10 min by acute action test relative to control; set-up: scale not given: the % may be the effect or the level left
OVCAR-3 [8] = assay: Cytotoxicity against Homo sapiens (human) OVCAR3 cells after 48 hr by SRB assay; conditions: OVCAR-3, 48 h
OVCAR-4 = assay: Cytotoxicity against Homo sapiens (human) OVCAR4 cells assessed as cell growth at 10 uM after 48 hr by SRB assay relative to control; conditions: OVCAR-4, 48 h, read-out: Activity
SK-MEL-28 = assay: Cytotoxicity against Homo sapiens (human) SK-MEL-28 cells assessed as cell growth at 10 uM after 48 hr by SRB assay relative to control; conditions: SK-MEL-28, 48 h, read-out: Activity

COc1ccccc1CNC(=O)CSc1nc2ccccc2c2nc(=O)c(-c3ccccc3)nn12
growth at 10 µM (OVCAR-3 [1]): 21.3% | growth at 10 µM (HL-60(TB)): 41.9% | growth at 10 µM (786-0): 35.3% | growth at 10 µM (CAKI-1): -13.6% | growth at 10 µM (EKVX): 31.4% | Activity [2]: 122.6% | Activity [3]: 73.3% | growth at 10 µM (MOLT-4): 52.3% | GI50 (HOP-62): 2.34 µM | LC50 (HOP-62): 19.5 µM | TGI (HOP-62): 5.5 µM | growth at 10 µM (HCT-116): 33.1% | Activity [4]: 80% | GI50 (A498): 1.17 µM | LC50 (A498): > 100 µM | TGI (A498; read-out: pTGI (converted)): 4.07 µM | GI50 (RXF 393): 1.78 µM | LC50 (RXF 393): > 100 µM | TGI (RXF 393): > 100 µM | growth at 10 µM (NCI-H460): 8.38% | growth at 10 µM (K562): 26.4% | GI50 (SNB-75): 2.24 µM | LC50 (SNB-75): 43.7 µM | TGI (SNB-75): 6.61 µM | Activity [5]: 150% | growth at 10 µM (SR): 42.1% | growth at 10 µM (SF-295): 18.8% | growth at 10 µM (A549): 39.7% | growth at 10 µM (MDA-MB-435): 27.7% | growth at 10 µM (SF-268): 43.5% | growth at 10 µM (DU-145): 0.48% | growth at 10 µM (LOX IMVI): 27.7% | Activity [6]: 99.1% | growth at 10 µM (IGROV-1): 18.8% | GI50 (Hs-578T): 3.09 µM | LC50 (Hs-578T): > 100 µM | TGI (Hs-578T): 9.12 µM | growth at 10 µM (SW-620): 30.2% | growth at 10 µM (KM12): 43.3% | Activity [7]: 111.5%

COc1ccc(-c2nn3c(SCC(=O)Nc4ccccc4Cl)nc4ccccc4c3nc2=O)cc1
growth at 10 µM (OVCAR-3 [1]): 7.18% | growth at 10 µM (HL-60(TB)): 38.6% | GI50 (OVCAR-3 [8]): 1.38 µM | CC50 (OVCAR-3 [8]; read-out: pLC50 (the source's name) (converted)): > 100 µM | TGI (OVCAR-3 [8]; read-out: pTGI (converted)): 3.31 µM | growth at 10 µM (786-0): 32.9% | growth at 10 µM (CAKI-1): 54.7% | growth at 10 µM (EKVX): 27.2% | Activity [2]: 75% | Activity [3]: 33.3% | growth at 10 µM (MOLT-4): 36.3% | GI50 (HOP-62): 2.88 µM | LC50 (HOP-62): 35.5 µM | TGI (HOP-62): 9.77 µM | growth at 10 µM (HCT-116): 12.2% | Activity [4]: 35.4% | growth at 10 µM (OVCAR-4): 45% | GI50 (RXF 393): 2.63 µM | LC50 (RXF 393): 39.8 µM | TGI (RXF 393): 7.76 µM | growth at 10 µM (NCI-H460): 24.1% | growth at 10 µM (K562): 26.9% | GI50 (SNB-75): 2 µM | LC50 (SNB-75): 25.1 µM | TGI (SNB-75): 6.03 µM | Activity [5]: 54.5% | growth at 10 µM (SR): 37% | growth at 10 µM (SF-295): 23.9% | growth at 10 µM (A549): -29.6% | growth at 10 µM (MDA-MB-435): 15.7% | growth at 10 µM (SF-268): 53.9% | growth at 10 µM (DU-145): -17.9% | growth at 10 µM (LOX IMVI): 42.1% | Activity [6]: 87.5% | growth at 10 µM (IGROV-1): 38.4% | GI50 (Hs-578T): 1.95 µM | LC50 (Hs-578T): > 100 µM | TGI (Hs-578T): 6.76 µM | growth at 10 µM (SW-620): 13.9% | growth at 10 µM (KM12): 34.8% | Activity [7]: 83.3% | growth at 10 µM (SK-MEL-28): -5.98%
